The conditions of data set [1]: DTA.
The nature of data set [2]: Molar enthalpy of transition or fusion. The following applies: DSC.

The record followed here is the NIST ThermoML archive (doi:10.1021/je400255c).

SMILES strings stand for the structures. Numbers after ± are expanded uncertainties.

As to `O=C[O-].[K+]` [potassium formate], the Normal melting temperature in data set [1] (Crystal 1) is 168.70 ± 1.5 °C. Also, the Triple point temperature in data set [1] (Crystal 2) stood at 412.65 ± 1 K. Also, the “Molar enthalpy of transition or fusion” value in data set [2] (Crystal 1) was 11.6 ± 0.2 kJ/mol; in data set [2] (Crystal 2), 0.64 ± 0.01 kJ/mol.
